Columns and labels:
SQR [1] = target: T1, SQR (Rhodobacter capsulatus, UniProt D5APH8); assay: co-purification; type: binding; conditions: noncovalently bound
T1 sequence (D5APH8 1-427): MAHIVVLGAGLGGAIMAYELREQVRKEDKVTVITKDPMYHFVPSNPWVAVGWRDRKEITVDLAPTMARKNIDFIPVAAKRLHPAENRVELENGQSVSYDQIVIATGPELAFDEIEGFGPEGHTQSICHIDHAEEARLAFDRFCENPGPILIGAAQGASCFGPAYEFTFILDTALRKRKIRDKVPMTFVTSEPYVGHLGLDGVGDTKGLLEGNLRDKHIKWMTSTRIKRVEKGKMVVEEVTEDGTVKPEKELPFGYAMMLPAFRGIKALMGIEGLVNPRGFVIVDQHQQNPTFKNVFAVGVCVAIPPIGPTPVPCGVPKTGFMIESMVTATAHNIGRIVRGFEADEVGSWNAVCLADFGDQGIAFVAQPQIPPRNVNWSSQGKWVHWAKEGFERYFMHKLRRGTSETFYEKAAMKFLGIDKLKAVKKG

SqrR = target: T2, SqrR (Rhodobacter capsulatus, UniProt D5AT91); assay: fluorescence anisotropy of DNA dissociation; LC-ESI-MS of adducts; type: binding; conditions: covalent; pseudo-first-order oxidation of C41/C107; 20-fold excess sulfane sulfur, persulfide made in situ; DNA-bound SqrR; 25 mM HEPES pH 7.0, 400 mM NaCl, 1 mM EDTA, 25°C
T2 construct: recombinant, full-length, reduced C9S protomer 12295 amu
T2 sequence (D5AT91 15-124): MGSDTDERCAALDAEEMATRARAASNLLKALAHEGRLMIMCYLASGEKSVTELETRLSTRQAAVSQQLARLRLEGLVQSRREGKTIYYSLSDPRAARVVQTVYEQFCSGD
Excerpt: fluorescence anisotropy of DNA dissociation; LC-ESI-MS of adducts on SqrR

SQR [2] = target: T1, SQR; assay: steady-state sulfide:quinone reductase assay; type: biochemical; conditions: electron acceptor at 100 μM; 4 mM KCN as S0 acceptor, Na2S 0-640 μM, 100 nM SQR
[3] = test system: SqrR C9S (reduced) (Rhodobacter capsulatus (SB1003?)); assay: fluorescence anisotropy; conditions: SqrR titrated into fluorescein-labeled operator in quartz cuvette without TCEP, buffer, salt, pH and temperature not given in the …
[4] = test system: SqrR C9S, CysSSH-treated (oxidized) (Rhodobacter capsulatus (SB1003?)); assay: fluorescence anisotropy; conditions: SqrR titrated into fluorescein-labeled operator in quartz cuvette without TCEP, buffer, salt, pH and temperature not given in the …
[5] = test system: SqrR C9S, GSSH-treated (oxidized) (Rhodobacter capsulatus (SB1003?)); assay: fluorescence anisotropy; conditions: SqrR titrated into fluorescein-labeled operator in quartz cuvette without TCEP, buffer, salt, pH and temperature not given in the …

## Cc1cc2nc3c(=O)[nH]c(=O)nc-3n(C[C@H](O)[C@H](O)[C@H](O)COP(=O)(O)OP(=O)(O)OC[C@H]3O[C@@H](n4cnc5c(N)ncnc54)[C@H](O)[C@@H]3O)c2cc1C [flavin adenine dinucleotide]
SQR [1]
  co-purification: recombinant R. capsulatus SQR noncovalently bound with flavin adenine dinucleotide (FAD)

## N[C@@H](CCC(=O)N[C@@H](CSS)C(=O)NCC(=O)O)C(=O)O [glutathione persulfide]
SqrR
  kox [x 10^-3 s^-1]^a / GSSH: 0.86 ± 0.05 x 10^-3 s^-1

## CC1=CC(=O)c2ccccc2C1=O [menadione]
SQR [2]
  steady-state sulfide:quinone reductase assay: the steady-state activity was higher with MD

## N[C@@H](CSS)C(=O)O [cysteine persulfide]
SqrR
  kox [x 10^-3 s^-1]^a / CSSH: 3.8 ± 0.1 x 10^-3 s^-1

## TGACATATTCACAACTCGGAATGTAA / TTACATTCCGAGTGGTGAATATGTCA
[3]
  Ka: 270 10^5 M-1
[4]
  Ka: 1.8 10^5 M-1
[5]
  Ka: 2.5 10^5 M-1

## COC1=C(OC)C(=O)C(CC=C(C)C)=C(C)C1=O [ubiquinone-1]
SQR [2]
  steady-state sulfide:quinone reductase assay: the activity with UQ-1 was also sufficient for further analyses

From publication PMC9995734, “Polysulfide metabolizing enzymes influence SqrR-mediated sulfide-induced transcription by impacting intracellular polysulfide dynamics” (PNAS Nexus, 2023)
